How the values were obtained:
[1] = biological target: T1, CRBP1 (Homo sapiens, UniProt P09455); experiment: Fluorescence binding assay: atROL displacement from holo-CRBP1 (FRET); conditions: for binding to / interaction with CRBP1: 0-10 μM range
T1 construct: made in house
T1 sequence (P09455 1-135): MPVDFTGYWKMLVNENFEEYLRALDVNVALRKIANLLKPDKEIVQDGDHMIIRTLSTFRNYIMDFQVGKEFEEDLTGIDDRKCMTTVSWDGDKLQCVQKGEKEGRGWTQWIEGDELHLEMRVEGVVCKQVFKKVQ
Experimental: Human apo-CRBP1 was expressed and purified as described by Silvaroli et al. (J Biol Chem. 2016, 15; 291(16)) without any further modification to the established protocol.
To prepare holo-CRBP1, 3 mg of purified apoprotein was incubated for 15 min on ice with 2 molar excess of atROL (Toronto Research Chemicals) in 10 mM Tris-HCl, pH 8.0, 5% glycerol (v/v). The retinoid was delivered in acetonitrile (<1%, v/v). To remove excess of atROL, the protein solution was diluted 10× with 10 mM Tris-HCl, pH 8.0, centrifuged (36 000 g, 20 min, 4° C.) and loaded onto a 5 mL HiTrap Q HP column. Holo-CRBP1 was eluted from the column in conditions described in CRBP1 purification method. The efficiency of formation of holo-CRBP1 was examined by recording UV/vis spectrum of the repurified protein.
The apparent affinity of nonretinoid ligands was evaluated by monitoring changes in the fluorescence of holo-CRBP1. In the atROL bound form, the protein excited at 285 nm emitted fluorescence at 350 and 480 nm due to FRET between the protein scaffold and the retinoid moiety (FIG. 2A). Replacement of atROL in the binding site by tested ligands leads to disruption of FRET and consequently an increase in the fluorescence intensity at 350 nm with concomitant diminishing signal at 480 nm. All fluorescence measurements were performed using a PerkinElmer Life Sciences LS55 spectrofluorometer. The titrations were performed at 25° C. in 67 mM phosphate-buffered saline buffer, pH 7.4, containing 5% glycerol (v/v) by adding an increasing amount of an examined compound delivered in acetonitrile. […] All fluorescence spectra were corrected for the inner filter effect. The Ki values were calculated by fitting intensities of the protein fluorescence at the maximum emission (350 nm) or the intensity of retinoid fluorescence at 480 nm to the saturation single ligand-binding model. The data fitting and calculations of the Ki values were performed using SigmaPlot 11 software package (Systat Software).

[2] = biological target: T1, CRBP1; conditions: read-out: affinity for atROL; cited from earlier work
[3] = biological target: T2, CRBP4 (Homo sapiens, UniProt Q96R05); conditions: read-out: affinity for atROL; cited from earlier work
T2 construct: thrombin cut site (residual residues after digestion) (C); 6x histidine tag (C, cleaved yes); made in house; host or cells: E. coli BL21 (DE3) (as for CRBP2)
T2 sequence (Q96R05 1-134): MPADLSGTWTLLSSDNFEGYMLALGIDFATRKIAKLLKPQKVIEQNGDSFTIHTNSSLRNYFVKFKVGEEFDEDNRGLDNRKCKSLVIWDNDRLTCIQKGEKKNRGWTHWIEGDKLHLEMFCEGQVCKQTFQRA

[4] = fluorescence atROL-replacing assay

## C=C(C)[C@H]1CC=C(C)CC1 [limonene, reference compound]
[1]; [4]
  binding to / interaction with CRBP1: did not observe limonene interacting

## C=C(C)[C@@H]1CCC(C)=C[C@H]1c1c(OC)cc(C)cc1OC [0-1918, 1,3-dimethoxy-5-methyl-2-[(1R,6R)-3-methyl-6-prop-1-en-2-ylcyclohex-2-en-1-yl]benzene]
[1]; [4]
  binding to / interaction with CRBP1: abolished the meaningful binding

## CC1=C(/C=C/C(C)=C/C=C/C(C)=C/CO)C(C)(C)CCC1 [atROL, all-trans-retinol]
[1]; reverse experiment: CRBP1 loaded with abn-CBD titrated with atROL, read-out: Ki value for replacing abn-CBD by vitamin A
  Ki: ~34 nM
[2]
  Kd: < 1 nM
[3]
  Kd: 200 nM

## C=C(C)[C@@H]1CCC(C)=C[C@H]1c1c(C)cc(O)cc1O [abn-CBDO, 5-methyl-4-[(1R,6R)-3-methyl-6-prop-1-en-2-ylcyclohex-2-en-1-yl]benzene-1,3-diol]
[1]; fluorescence atROL-replacing assay, relative to abn-CBD
  apparent affinity lowered compared with abn-CBD: 4.3 times

## C=C(C)[C@@H]1CCC(C)=CC1c1c(O)cc(C)cc1O (stereo partly drawn) [CBDO, 5-methyl-2-[(6R)-3-methyl-6-prop-1-en-2-ylcyclohex-2-en-1-yl]benzene-1,3-diol]
[1]; fluorescence atROL-replacing assay, relative to abn-CBDO
  further increase of the Ki value: 6.3 fold

Source: patent US20210228500A1, “CELLULAR RETINOID BINDING PROTEIN ANTAGONISTS AND USES THEREOF” (CASE WESTERN RESRVE UNIVERSITY, priority 2018, published 2021)
